In patent publication US10172946B2, “Monodisperse glycogen and phytoglycogen nanoparticles and use thereof as additives in cosmetics, pharmaceuticals, and food products” (Mirexus Biotechnologies Inc., priority 2013, dated 2019):

Assay: Photostability of phytoglycogen-ethyl-4-aminocinnamate conjugate versus aminocinnamate
Assay type: physicochemical
Conditions: after 4 h of exposure to UV-irradiation, thin film
Description: Aminocinnamate and a phytoglycogen-ethyl-4-aminocinnamate conjugate were dissolved in ethanol or in water, respectively.
Solutions were deposited as thin films onto a quartz plate and dried in air for 30 min. After drying, the samples were irradiated with UV light, as in Example 11, for 4 h and then tested for their photostability.
Photodegradation was calculated from the decrease in the maximum absorption of the respective products.

- maximum absorbance retained: 40%
Compound: CCOC(=O)C=Cc1ccc(N)cc1 [aminocinnamate, ethyl 4-aminocinnamate]
